Experimental data taken from patent publication US20250188037A1, “N-(PYRROLIDIN-3-YL OR PIPERIDIN-4-YL)ACETAMIDE DERIVATIVES” (Takeda Pharmaceutical Company Limited, priority 2022, published 2025).

Legend:
SSTR4 [1] = biological target: T1, SSTR4 (Homo sapiens (Human), UniProt P31391); test: Inhibition of forskolin stimulated cAMP in cells overexpressing SSTR4; assay type: cell-based; details: inhibition of forskolin stimulated cAMP in CHO-K1 cells overexpressing SSTR4; read-out: SSTR4 Activity pEC50 (converted)
Description: Inhibition of Forskolin Stimulated cAMP in Cells Overexpressing SSTR4
This cell-based assay measures the ability of compounds to inhibit forskolin stimulated cAMP in CHO-K1 cells overexpressing SSTR4. CHO-K1 cells overexpressing SSTR4 (CHO-SSTR4) are purchased from DiscoveRx (product code 95-0059C2). The CHO-SSTR4 cells are maintained in F12K media with 10% Fetal Bovine Serum (Hyclone), 1% Pen/Strep (Life Technologies), and 800 μg/mL G418 (Life Technologies). […] The next day, the culture media is removed from the cells and the cells are washed (added then removed) with Krebs Ringer Buffer (ZenBio, KRB-1000 mL). […] The cells are incubated in 10 μL compound/stimulation buffer for 30 minutes at room temperature. Cellular cAMP levels are detected with a HTRF LANCE Ultra cAMP kit (Perkin Elmer, catalog number TRF0264).
The assay is performed in accordance with the manufacturer's instructions. […] of diluted Eu—W8044 labeled streptavidin (dilution: 1:50 in cAMP Detection Buffer) is added to each well. Then 5 μL of diluted biotin cAMP (dilution: 1:150 in cAMP Detection Buffer) is added to each well. The plates are covered and allowed to incubate for 60 minutes at room temperature on a shaker. […] The pEC50 values are generated using Activity Base for Screening Data Management.

SSTR4 [2] = biological target: T1, SSTR4; test: SSTR4 I-125 somatostatin competition binding assay; details: for SSTR4 Binding pIC50: membranes from CHO-K1 cells overexpressing SSTR4
Excerpt: The scintillator sheets are melted to filters using a heat block.

SSTR1 = SSTR1 (Homo sapiens (Human), UniProt P30872);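 note: binding assay on CHO-K1 cell membranes overexpressing SSTR1, incubated 60 min at room temperature, bound fraction collected on filters and read by scintillation counting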
SSTR1, sequence (P30872 whole entry): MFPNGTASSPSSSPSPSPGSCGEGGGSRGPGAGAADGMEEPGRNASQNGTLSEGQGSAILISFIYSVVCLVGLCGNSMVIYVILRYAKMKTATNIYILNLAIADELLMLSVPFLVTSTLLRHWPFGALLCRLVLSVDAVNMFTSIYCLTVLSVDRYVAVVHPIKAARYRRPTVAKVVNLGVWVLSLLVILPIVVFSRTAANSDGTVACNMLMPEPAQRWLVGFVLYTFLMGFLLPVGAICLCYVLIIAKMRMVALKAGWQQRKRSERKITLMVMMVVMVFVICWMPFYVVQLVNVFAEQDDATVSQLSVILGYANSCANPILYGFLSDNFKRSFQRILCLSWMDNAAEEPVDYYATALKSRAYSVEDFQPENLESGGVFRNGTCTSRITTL
Description: Membranes from CHO-K1 cells overexpressing SSTR1 are purchased from Perkin Elmer (catalog number ES-520-M400UA). […] Then 10 μg of SSTR1 membranes in 50 μL assay buffer are added per well. The plate is incubated for 60 minutes at room temperature. […] The contents of the assay plate are transferred to filters with a TomTech harvester and washed 5 times with 20 mM HEPES, 100 mM NaCl. […] The scintillator sheets are melted to the filters using a heat block. The filters are then read in a MicroBeta scintillation counter. Binding Ki curves are generated using Activity Base for Screening Data Management and the results are reported as pIC50.

T1 sequence (P31391 whole entry): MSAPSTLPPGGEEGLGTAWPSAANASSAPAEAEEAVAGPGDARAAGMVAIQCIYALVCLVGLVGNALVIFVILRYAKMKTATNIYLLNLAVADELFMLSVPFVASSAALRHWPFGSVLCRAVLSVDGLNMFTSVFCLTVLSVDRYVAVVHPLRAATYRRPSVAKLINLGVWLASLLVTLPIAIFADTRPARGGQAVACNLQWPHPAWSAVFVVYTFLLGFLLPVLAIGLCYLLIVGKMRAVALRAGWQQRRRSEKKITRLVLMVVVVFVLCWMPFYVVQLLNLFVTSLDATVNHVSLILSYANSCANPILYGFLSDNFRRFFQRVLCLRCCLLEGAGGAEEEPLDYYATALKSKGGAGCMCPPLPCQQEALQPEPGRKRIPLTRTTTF

Row | SMILES | EC50 (SSTR4 [1]) | SSTR4 Binding pIC50 (SSTR4 [2]) | IC50 (SSTR1) | IC50 (SSTR4 [2]; membranes from CHO-K1 cells overexpressing SSTR4, read-out: SSTR4 Binding pIC50 (converted))
1 | CC1CC(NC(=O)C2(Oc3ccccc3Cl)CC2)CCN1C (centres unmarked) [Example 8, 1-(2-chlorophenoxy)-N-(1,2-dimethylpiperidin-4-yl)cyclopropane-1-carboxamide] | 182 nM |  |  | 
2 | O=C(N[C@H]1CCNC[C@@H]1F)C1(Cc2ccc(Cl)cc2)CC1 [Example 23, 1-(4-chlorobenzyl)-N-((3S,4S)-3-fluoropiperidin-4-yl)cyclopropane-1-carboxamide] | 23.4 nM | 7.13 | 42700 nM | 
3 | Cc1cccc(CC2(C(=O)NC3CN(C)CC3c3ccccc3)CC2)c1 (centres unmarked) [Example 2, N-(1-methyl-4-phenylpyrrolidin-3-yl)-1-(3-methylbenzyl)cyclopropane-1-carboxamide] | 34.7 nM |  |  | 
4 | C[C@H]1CNCC[C@@H]1NC(=O)C(F)(F)Oc1cccc(F)c1 [Example 55, 2,2-difluoro-2-(3-fluorophenoxy)-N-((3S,4S)-3-methylpiperidin-4-yl)acetamide] | 5.25 nM | 7.13 | > 50100 nM | 
5 | C[C@H]1CNCC[C@@H]1NC(=O)C1(Cc2ccc(Cl)cc2)CC1 [Example 18, 1-(4-chlorobenzyl)-N-((3S,4S)-3-methylpiperidin-4-yl)cyclopropane-1-carboxamide] | 2 nM | 7.58 | 4680 nM | 
6 | Cc1ccc(CC2(C(=O)N[C@@H]3CCN(C)C[C@H]3C)CC2)cc1 (relative stereo) [Example 11, N-(trans-1,3-dimethylpiperidin-4-yl)-1-(4-methylbenzyl)cyclopropane-1-carboxamide] | 141 nM |  |  | 
7 | C[C@H]1CN(C)CC[C@@H]1NC(=O)C(F)(F)Oc1ccccc1 [Example 40, N-((3S,4S)-1,3-dimethylpiperidin-4-yl)-2,2-difluoro-2-phenoxyacetamide] | 117 nM |  |  | 
8 | C[C@H]1C[C@@H](NC(=O)C(F)(F)Oc2ccccc2)CCN1 (relative stereo) [Example 50, 2,2-difluoro-N-(cis-2-methylpiperidin-4-yl)-2-phenoxyacetamide] | 57.5 nM |  |  | 1320 nM
9 | Cc1cccc(CC2(C(=O)NC3CN(C)CC3C)CC2)c1 (centres unmarked) [Example 6, N-(1,4-dimethylpyrrolidin-3-yl)-1-(3-methylbenzyl)cyclopropane-1-carboxamide] | 31.6 nM | 6.55 | 8320 nM | 
10 | C[C@@H]1C[C@H](NC(=O)C(F)(F)Oc2ccccc2)CCN1 [Example 51, 2,2-difluoro-N-((2R,4R)-2-methylpiperidin-4-yl)-2-phenoxyacetamide] | 35.5 nM | 5.53 | > 50100 nM | 
11 | C[C@H]1CN(C)CC[C@@H]1NC(=O)C1(Cc2cccc(Cl)c2)CC1 [Example 36, 1-(3-chlorobenzyl)-N-((3S,4S)-1,3-dimethylpiperidin-4-yl)cyclopropane-1-carboxamide] | 23.4 nM | 6.56 | 4680 nM | 
12 | Cc1ccccc1CC1(C(=O)N[C@H]2CCNC[C@@H]2F)CC1 [Example 24, N-((3S,4S)-3-fluoropiperidin-4-yl)-1-(2-methylbenzyl)cyclopropane-1-carboxamide] | 19.5 nM | 7.23 | > 50100 nM | 
13 | O=C(N[C@H]1CCNC[C@@H]1F)C1(Cc2ccccc2F)CC1 [Example 43, 1-(2-fluorobenzyl)-N-((3S,4S)-3-fluoropiperidin-4-yl)cyclopropane-1-carboxamide] | 63.1 nM | 6.87 | > 50100 nM | 
14 | C[C@@H]1CN(C)CC[C@H]1NC(=O)C1(Cc2cccc(F)c2)CC1 (relative stereo) [Example 20, N-(trans-1,3-dimethylpiperidin-4-yl)-1-(3-fluorobenzyl)cyclopropane-1-carboxamide] | 77.6 nM |  |  | 
15 | C[C@H]1CNCC[C@@H]1NC(=O)C(F)(F)Oc1ccccc1C#N [Example 33, 2-(2-cyanophenoxy)-2,2-difluoro-N-((3S,4S)-3-methylpiperidin-4-yl)acetamide] | 16.6 nM | 6.79 | > 50100 nM | 
16 | C[C@H]1CNCC[C@@H]1NC(=O)C(F)(F)Cc1ccccc1 [Example 26, 2,2-difluoro-N-((3S,4S)-3-methylpiperidin-4-yl)-3-phenylpropanamide] | 14.8 nM | 7.15 | > 50100 nM | 
17 | O=C(NC1CCNCC1)C(F)(F)Oc1ccccc1Cl [Example 70, 2-(2-chlorophenoxy)-2,2-difluoro-N-(piperidin-4-yl)acetamide] | 18.2 nM | 6.48 | > 50100 nM | 
18 | C[C@H]1CNCC[C@@H]1NC(=O)C1(Cc2ccc(F)cc2)CC1 [Example 13, 1-(4-fluorobenzyl)-N-((3S,4S)-3-methylpiperidin-4-yl)cyclopropane-1-carboxamide] | 2.75 nM | 7.45 | 8710 nM | 

Row | SMILES | EC50 (SSTR4 [1]) | SSTR4 Binding pIC50 (SSTR4 [2]) | IC50 (SSTR1) | IC50 (SSTR4 [2]; membranes from CHO-K1 cells overexpressing SSTR4, read-out: SSTR4 Binding pIC50 (converted))
19 | O=C(N[C@H]1CCNC[C@@H]1F)C1(Cc2cccc(Cl)c2)CC1 [Example 27, 1-(3-chlorobenzyl)-N-((3S,4S)-3-fluoropiperidin-4-yl)cyclopropane-1-carboxamide] | 10.2 nM | 7.25 | > 50100 nM | 
20 | C[C@@H]1CN(C)CC[C@H]1NC(=O)C1(Cc2ccccc2Cl)CC1 (relative stereo) [Example 17, 1-(2-chlorobenzyl)-N-(trans-1,3-dimethylpiperidin-4-yl)cyclopropane-1-carboxamide] | 89.1 nM |  |  | 
21 | CC(Oc1cccc(Cl)c1Cl)C(=O)N[C@H]1CCNC[C@@H]1F (stereo partly drawn) [Example 61, 2-(2,3-dichlorophenoxy)-N-((3S,4S)-3-fluoropiperidin-4-yl)propanamide] | 123 nM |  |  | 
22 | Cc1ccc(OC(F)(F)C(=O)NC2CCNCC2)cc1 [Example 34, 2,2-difluoro-N-(piperidin-4-yl)-2-(p-tolyloxy)acetamide] | 47.9 nM | 6.17 | > 50100 nM | 
23 | CN1CCC(NC(=O)C(F)(F)Oc2ccccc2)CC1 [Example 28, 2,2-difluoro-N-(1-methylpiperidin-4-yl)-2-phenoxyacetamide] | 195 nM |  |  | 
24 | C[C@H]1CNCC[C@@H]1NC(=O)C(F)(F)Oc1ccccc1Cl [Example 64, 2-(2-chlorophenoxy)-2,2-difluoro-N-((3S,4S)-3-methylpiperidin-4-yl)acetamide] | 1.32 nM | 7.25 | 19100 nM | 
25 | C[C@H]1C[C@H](NC(=O)C(F)(F)Oc2ccccc2)CCN1 [Example 53, 2,2-difluoro-N-((2S,4R)-2-methylpiperidin-4-yl)-2-phenoxyacetamide] | 55 nM | 5.43 | > 50100 nM | 
26 | CC[C@@H]1CN(C)CC[C@H]1NC(=O)C1(Oc2ccccc2Cl)CC1 (relative stereo) [Example 7, 1-(2-chlorophenoxy)-N-(trans-3-ethyl-1-methylpiperidin-4-yl)cyclopropane-1-carboxamide] | 178 nM |  |  | 
27 | O=C(NC1CCN2CCCC12)C1(Oc2ccccc2Cl)CC1 (centres unmarked) [Example 9, 1-(2-chlorophenoxy)-N-(hexahydro-1H-pyrrolizin-1-yl)cyclopropane-1-carboxamide] | 182 nM |  |  | 
28 | O=C(N[C@H]1CCNC[C@@H]1F)C1(Oc2cccc(Cl)c2)CC1 [Example 59, 1-(3-chlorophenoxy)-N-((3S,4S)-3-fluoropiperidin-4-yl)cyclopropane-1-carboxamide] | 58.9 nM |  |  | 
29 | Cc1ccccc1CC1(C(=O)N[C@H]2CCN(C)C[C@@H]2C)CC1 [Example 38, N-((3S,4S)-1,3-dimethylpiperidin-4-yl)-1-(2-methylbenzyl)cyclopropane-1-carboxamide] | 14.1 nM |  |  | 
30 | CC(Oc1ccccc1Cl)C(=O)N[C@@H]1CCN(C)[C@H](C)C1 (stereo partly drawn) [Example 67, 2-(2-chlorophenoxy)-N-((2R,4R)-1,2-dimethylpiperidin-4-yl)propanamide] | 132 nM |  |  | 
31 | O=C(N[C@H]1CCNC[C@@H]1F)C1(Cc2cccc(F)c2)CC1 [Example 44, 1-(3-fluorobenzyl)-N-((3S,4S)-3-fluoropiperidin-4-yl)cyclopropane-1-carboxamide] | 20.4 nM |  |  | 
32 | CC[C@@H]1CN(C)CC[C@H]1NC(=O)C1(Cc2cccc(C)c2)CC1 (relative stereo) [Example 21, N-(trans-3-ethyl-1-methylpiperidin-4-yl)-1-(3-methylbenzyl)cyclopropane-1-carboxamide] | 42.7 nM |  |  | 
33 | C[C@@H]1C[C@@H](NC(=O)C(F)(F)Oc2ccccc2)CCN1 [Example 52, 2,2-difluoro-N-((2R,4S)-2-methylpiperidin-4-yl)-2-phenoxyacetamide] | 170 nM |  |  | 
34 | CN1CC[C@H](NC(=O)C2(Cc3ccc(Cl)cc3)CC2)[C@@H](F)C1 [Example 39, 1-(4-chlorobenzyl)-N-((3S,4S)-3-fluoro-1-methylpiperidin-4-yl)cyclopropane-1-carboxamide] | 102 nM |  |  | 
35 | O=C(N[C@H]1CCNC[C@@H]1F)C1(Oc2ccccc2C2CC2)CC1 [Example 60, 1-(2-cyclopropylphenoxy)-N-((3S,4S)-3-fluoropiperidin-4-yl)cyclopropane-1-carboxamide] | 174 nM |  |  | 
